In ChEMBL document CHEMBL5346957, “Enantioselective Synthesis and Biological Evaluation of Pyrrolidines Bearing Quaternary Stereogenic Centers” (J Med Chem, 2023):
pIC50: −log10 of the molar value. The source made the active and inactive calls. No cut-off for these calls is given here.

Tests used:
A549 = test: Antiproliferative activity against human A549 cells incubated for 72 hrs measured by MTT assay; type: functional, cell-based; conditions: A549, 72 h
HepG2 = test: Antiproliferative activity against human HepG2 cells incubated for 72 hrs measured by MTT assay; type: functional, cell-based; conditions: HepG2, 72 h
A-375 [1] = test: Antiproliferative activity against human A-375 cells incubated for 72 hrs measured by MTT assay; type: functional, cell-based; conditions: A-375, 72 h
HCT-116 = test: Antiproliferative activity against human HCT-116 cells incubated for 72 hrs measured by MTT assay; type: functional, cell-based; conditions: HCT-116, 72 h
HeLa = test: Antiproliferative activity against human HeLa cells incubated for 72 hrs measured by MTT assay; type: functional, cell-based
PC-3 = test: Antiproliferative activity against human PC-3 cells incubated for 72 hrs measured by MTT assay; type: functional, cell-based; conditions: PC-3, 72 h
MDA-MB-231 = test: Antiproliferative activity against human MDA-MB-231 cells incubated for 72 hrs measured by MTT assay; type: functional, cell-based; conditions: MDA-MB-231, 72 h
MIA PaCa-2 = test: Antiproliferative activity against human MIA PaCa-2 cells incubated for 72 hrs measured by MTT assay; type: functional, cell-based; conditions: MIA PaCa-2, 72 h
[2] = Cytotoxicity against human BEAS-2B cells incubated for 72 hrs measured by MTT assay; type: toxicity, cell-based
A-375 [3] = test: Effect on mitotic progression in human A-375 cells assessed as mitotic index at 0.5 uM measured by flow cytometric analysis (reference value: 3.22%); type: functional
A-375 [4] = test: Induction of apoptosis in human A-375 cells assessed as late apoptotic cells at 2 uM measured by annexin V/PI based flow cytometric analysis (reference value: 1.07%); type: functional
A-375 [5] = test: Induction of apoptosis in human A-375 cells assessed as late apoptotic cells at 1 uM measured by annexin V/PI based flow cytometric analysis (reference value: 1.07%); type: functional
[6] = molecular target: T1, Aurora kinase A (Homo sapiens) (UniProt O14965); test: Inhibition of Aurora A (unknown origin) assessed as downregulation of kinase phosphorylation at 0.5 to 2 uM by Western blot analysis; conditions: dose 0.5-2 µM
T1 sequence (whole entry): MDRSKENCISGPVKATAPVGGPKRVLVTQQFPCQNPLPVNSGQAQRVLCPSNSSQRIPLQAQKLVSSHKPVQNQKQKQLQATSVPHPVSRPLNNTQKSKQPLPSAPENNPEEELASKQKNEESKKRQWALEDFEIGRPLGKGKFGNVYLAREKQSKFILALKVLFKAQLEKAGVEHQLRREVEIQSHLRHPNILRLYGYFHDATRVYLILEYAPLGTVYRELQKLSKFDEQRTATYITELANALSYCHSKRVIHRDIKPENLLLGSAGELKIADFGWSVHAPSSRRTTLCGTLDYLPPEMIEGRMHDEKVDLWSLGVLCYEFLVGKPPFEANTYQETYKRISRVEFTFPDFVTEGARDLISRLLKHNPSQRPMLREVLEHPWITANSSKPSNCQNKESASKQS

Aurora kinase B = Aurora kinase B (Homo sapiens, UniProt Q96GD4); test: Inhibition of Aurora B (unknown origin) incubated for 1 hr by microplate reader analysis
Sequence of Aurora kinase B (Q96GD4 whole entry): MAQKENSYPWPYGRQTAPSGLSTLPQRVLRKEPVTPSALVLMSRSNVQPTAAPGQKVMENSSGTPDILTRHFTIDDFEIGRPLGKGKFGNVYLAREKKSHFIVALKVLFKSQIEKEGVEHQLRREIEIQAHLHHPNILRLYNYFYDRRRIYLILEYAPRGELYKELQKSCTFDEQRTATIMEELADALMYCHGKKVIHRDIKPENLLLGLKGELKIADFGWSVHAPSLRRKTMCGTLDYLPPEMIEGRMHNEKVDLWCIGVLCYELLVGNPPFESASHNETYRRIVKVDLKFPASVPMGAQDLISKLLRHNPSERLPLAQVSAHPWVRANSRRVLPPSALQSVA

A-375 [7] = test: Effect cycle arrest in human A-375 cells assessed as accumulation of cells in G2/M phase at 1 uM measured by flow cytometric analysis (reference value: 26.76%); type: functional
A-375 [8] = test: Induction of apoptosis in human A-375 cells assessed as early apoptotic cells at 1 uM measured by annexin V/PI based flow cytometric analysis (reference value: 9.78%); type: functional
A-375 [9] = test: Induction of apoptosis in human A-375 cells assessed as apoptotic cells at 2 uM measured by annexin V/PI based flow cytometric analysis (reference value: 10.8%); type: functional
A-375 [10] = test: Effect on mitotic progression in human A-375 cells assessed as mitotic index at 1 uM measured by flow cytometric analysis (reference value: 3.22%); type: functional
A-375 [11] = test: Effect on mitotic progression in human A-375 cells assessed as mitotic index at 2 uM measured by flow cytometric analysis (reference value: 3.22%); type: functional
A-375 [12] = test: Induction of apoptosis in human A-375 cells assessed as early apoptotic cells at 0.5 uM measured by annexin V/PI based flow cytometric analysis (reference value: 9.78%); type: functional
Aurora kinase C = molecular target: T2, Aurora kinase C (Homo sapiens, UniProt Q9UQB9); test: Inhibition of Aurora C (unknown origin) incubated for 1 hr by microplate reader analysis
T2 sequence (Q9UQB9 whole entry): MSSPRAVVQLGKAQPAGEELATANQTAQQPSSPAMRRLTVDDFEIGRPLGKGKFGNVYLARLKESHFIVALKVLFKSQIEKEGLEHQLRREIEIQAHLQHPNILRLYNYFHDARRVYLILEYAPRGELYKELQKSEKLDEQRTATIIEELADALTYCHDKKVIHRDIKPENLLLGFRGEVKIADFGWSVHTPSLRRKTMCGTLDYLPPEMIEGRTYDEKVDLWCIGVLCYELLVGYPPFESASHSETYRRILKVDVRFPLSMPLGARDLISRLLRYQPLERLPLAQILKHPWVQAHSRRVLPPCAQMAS

A-375 [13] = test: Effect cycle arrest in human A-375 cells assessed as accumulation of cells in G2/M phase at 0.5 uM measured by flow cytometric analysis (reference value: 26.76%); type: functional
A-375 [14] = test: Induction of apoptosis in human A-375 cells assessed as apoptotic cells at 0.5 uM measured by annexin V/PI based flow cytometric analysis (reference value: 10.8%); type: functional
A-375 [15] = test: Effect cycle arrest in human A-375 cells assessed as accumulation of cells in G2/M phase at 2 uM measured by flow cytometric analysis (reference value: 26.76%); type: functional
Aurora kinase A = molecular target: T3, Aurora kinase A (Homo sapiens, UniProt O14965); test: Inhibition of Aurora A (unknown origin) incubated for 1 hr by microplate reader analysis
T3 sequence (O14965 whole entry): T1 sequence (whole entry)

A-375 [16] = test: Induction of apoptosis in human A-375 cells assessed as apoptotic cells at 1 uM measured by annexin V/PI based flow cytometric analysis (reference value: 10.8%); type: functional
A-375 [17] = test: Induction of apoptosis in human A-375 cells assessed as late apoptotic cells at 0.5 uM measured by annexin V/PI based flow cytometric analysis (reference value: 1.07%); type: functional
A-375 [18] = test: Induction of apoptosis in human A-375 cells assessed as early apoptotic cells at 2 uM measured by annexin V/PI based flow cytometric analysis (reference value: 9.78%); type: functional

| Compound | pIC50 (A549) | pIC50 (HepG2) | pIC50 (A-375 [1]) | pIC50 (HCT-116) | pIC50 (HeLa) | pIC50 (PC-3) | pIC50 (MDA-MB-231) | pIC50 (MIA PaCa-2) | IC50 at 72 h [2] [µM] | also measured |
| --- | --- | --- | --- | --- | --- | --- | --- | --- | --- | --- |
| CCOc1ccc([C@@H]2[C@@H]([N+](=O)[O-])[C@@H](c3ccccc3)N[C@@]2(C)C(=O)OC)cc1 | < 4.00 | < 4.00 | < 4.00 | < 4.00 | < 4.00 | < 4.00 | < 4.00 | < 4.00 | > 100 | – |
| CCOc1ccc([C@H]2[C@H]([N+](=O)[O-])[C@H](c3ccccc3)N[C@]2(C)C(=O)OC)cc1 | < 4.00 | < 4.00 | < 4.00 | < 4.00 | < 4.00 | < 4.00 | < 4.00 | < 4.00 | > 100 | – |
| CCOc1ccc([C@H]2[C@H]([N+](=O)[O-])[C@H](c3ccccc3)N[C@@H]2C(=O)OC)cc1 | < 4.00 | < 4.00 | < 4.00 | < 4.00 | < 4.00 | < 4.00 | < 4.00 | < 4.00 | > 100 | – |
| CCOc1ccc([C@H]2[C@](C)([N+](=O)[O-])[C@H](c3ccccc3)N[C@]2(C)C(=O)OC)cc1 | 6.29 | 5.78 | 6.62 | 6.14 | 6.02 | 6.40 | 6.37 | 5.97 | > 100 | Activity (A-375 [3]): 6.24%; Activity (A-375 [4]): 17.8%; Activity (A-375 [5]): 14.6%; inhibition [6]: Active; IC50 (Aurora kinase B): Not Active; Activity (A-375 [7]): 54.46%; Activity (A-375 [8]): 20.4%; Activity (A-375 [9]): 37.6%; Activity (A-375 [10]): 10.82%; Activity (A-375 [11]): 18.51%; Activity (A-375 [12]): 13.5%; IC50 (Aurora kinase C): Not Active; Activity (A-375 [13]): 32.73%; Activity (A-375 [14]): 22.7%; Activity (A-375 [15]): 68.69%; pIC50 (Aurora kinase A): 6.55; Activity (A-375 [16]): 35%; Activity (A-375 [17]): 9.23%; Activity (A-375 [18]): 19.8% |
| CCOc1ccc([C@H]2[C@H](C(=O)OC)N[C@H](c3ccccc3)[C@]2(C)[N+](=O)[O-])cc1 | < 4.00 | < 4.00 | < 4.00 | < 4.00 | < 4.00 | < 4.00 | < 4.00 | < 4.00 | > 100 | – |
| CCOc1ccc([C@@H]2[C@@H](C(=O)OC)N[C@@H](c3ccccc3)[C@@]2(C)[N+](=O)[O-])cc1 | 4.94 | 4.54 | 5.13 | 4.91 | 4.78 | 4.85 | 4.77 | 4.67 | > 100 | – |
| CCOc1ccc([C@@H]2[C@@H]([N+](=O)[O-])[C@@H](c3ccccc3)N[C@H]2C(=O)OC)cc1 | < 4.00 | < 4.00 | < 4.00 | < 4.00 | < 4.00 | < 4.00 | < 4.00 | < 4.00 | > 100 | – |
| CCOc1ccc([C@@H]2[C@@](C)([N+](=O)[O-])[C@@H](c3ccccc3)N[C@@]2(C)C(=O)OC)cc1 | 4.31 | < 4.00 | 4.57 | 4.13 | 4.08 | 4.49 | 4.46 | < 4.00 | > 100 | – |
